target: STING (Homo sapiens, UniProt Q86WV6, G230A/H232R/R293Q/R71H); assay: STING reporter assay: THP1-Dual KO-IFNAR2 cells stimulated with 2′3′cGAMP, luciferase reporter activity; assay type: cell-based; settings: 15 μM 2′3′cGAMP, 24h, class symbols
Method: STING pathway activation by the compounds described herein were measured using THP1-Dual™ cells (KO-IFNAR2).
THP1-Dual™ KO-IFNAR2 Cells (obtained from invivogen) were maintained in RPMI, 10% FCS, 5 ml P/S, 2 mM L-glut, 10 mM Hepes, and 1 mM sodium pyruvate. Compounds were spotted in empty 384 well tissue culture plates (Greiner 781182) by Echo for a final concentration of 0.0017-100 μM. Cells were plated into the TC plates at 40 μL per well, 2×10E6 cells/mL. For activation with STING ligand, 2′3′cGAMP (MW 718.38, obtained from Invivogen), was prepared in Optimem media.
The following solutions were prepared for each 1×384 plate: • Solution A: 2 mL Optimem with one of the following stimuli: • 60 uL of 10 mM 2′3′cGAMP ->150 μM stock • Solution B: 2 mL Optimem with 60 μL Lipofectamine 2000->Incubate 5 min at RT
2 mL of solution A and 2 ml Solution B was mixed and incubated for 20 min at room temperature (RT). 20 uL of transfection solution (A+B) was added on top of the plated cells, with a final 2′3′cGAMP concentration of 15 μM. The plates were then centrifuged immediately at 340 g for 1 minute, after which they were incubated at 37° C., 5% CO2, >98% humidity for 24h. Luciferase reporter activity was then measured. EC50 values were calculated by using standard methods known in the art.
Luciferase reporter assay: 10 μL of supernatant from the assay was transferred to white 384-plate with flat bottom and squared wells. One pouch of QUANTI-Luc™ Plus was dissolved in 25 mL of water. 100 μL of QLC Stabilizer per 25 mL of QUANTI-Luc™ Plus solution was added. 50 μL of QUANTI-Luc™ Plus/QLC solution per well is then added. Luminescence is measured on a Platereader (e.g., Spectramax I3X (Molecular Devices GF3637001)).
Luciferase reporter activity was then measured. EC50 values were calculated by using standard methods known in the art.

Chain of STING (Q86WV6 whole entry R71H/G230A/H232R/R293Q): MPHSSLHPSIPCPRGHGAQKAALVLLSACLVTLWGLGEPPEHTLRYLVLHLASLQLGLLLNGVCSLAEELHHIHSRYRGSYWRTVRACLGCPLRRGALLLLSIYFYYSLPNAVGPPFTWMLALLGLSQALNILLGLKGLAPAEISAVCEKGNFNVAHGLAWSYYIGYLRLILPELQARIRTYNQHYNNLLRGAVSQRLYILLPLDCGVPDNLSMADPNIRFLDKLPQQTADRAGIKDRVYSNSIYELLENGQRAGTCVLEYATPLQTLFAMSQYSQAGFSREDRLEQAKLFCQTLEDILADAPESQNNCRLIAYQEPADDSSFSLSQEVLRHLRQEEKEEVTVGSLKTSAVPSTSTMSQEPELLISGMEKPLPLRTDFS

Question: For `C[C@H](NC(=O)Nc1cc(Cl)c2cc[nH]c2c1)c1cc(Cl)cc(C(F)(F)F)c1` (single isomer, unassigned) [Compound 520], which EC50 is on record?
Answer: The EC50 was 0.2 to 1 µM.

Question: How did the EC50 turn out when `O=C(Nc1ccc(C(F)(F)F)cc1)Nc1ccc2cc[nH]c2c1` [Compound 101] was run?
Answer: The EC50 was 0.04 to 0.2 µM.

Question: How did the EC50 turn out when `O=C(Nc1ccc(C(F)(F)F)cc1)Nc1ccc2[nH]ccc2c1` [Compound 102] was run?
Answer: Its EC50 is 1 to 5 µM.

Question: For `O=C(Nc1ccc(C(F)(F)F)cc1)Nc1cc2[nH]ccc2cn1` [Compound 110], which EC50 is on record?
Answer: The EC50 was 5 to 100 µM.

Question: Which EC50 does the source give for `O=C(Nc1ccc(C(F)(F)F)cc1)Nc1cnc2cc[nH]c2c1` [Compound 111] here?
Answer: Its EC50 is 0.2 to 1 µM.

Question: With `C#Cc1ccc(NC(=O)Nc2ccc3[nH]ccc3c2)cc1` [Compound 151] as the molecule, how does the EC50 read?
Answer: The EC50 was 5 to 100 µM.

Question: `C#Cc1ccc(NC(=O)Nc2ccc3cc[nH]c3c2)cc1` [Compound 152] was tested. Which EC50 did it give?
Answer: The EC50 was 0.2 to 1 µM.

Question: `O=C(Nc1cc(F)cc(C(F)(F)F)c1)Nc1cc(Cl)c2cc[nH]c2c1` [Compound 153] was tested. Which EC50 did it give?
Answer: The EC50 was 0.2 to 1 µM.

Question: Which EC50 does the source give for `O=C(Nc1ccc(C(F)(F)F)cc1)Nc1cc(Br)c2cc[nH]c2c1` [Compound 155] here?
Answer: The EC50 was 0.04 to 0.2 µM.

Question: Which EC50 does the source give for `O=C(Nc1ccc(Oc2c(F)cccc2F)cc1)Nc1ccc2cc[nH]c2c1` [Compound 160] here?
Answer: Its EC50 is 1 to 5 µM.

Question: `O=C(NCCC1CC1)Nc1ccc2cc[nH]c2c1` [Compound 162] was tested. Which EC50 did it give?
Answer: Its EC50 is 5 to 100 µM.

Question: How did the EC50 turn out when `O=C(Nc1ccc(F)c(F)c1)Nc1ccc2cc[nH]c2c1` [Compound 164] was run?
Answer: The EC50 was 0.2 to 1 µM.

Question: How did the EC50 turn out when `COC(=O)c1cc(NC(=O)Nc2ccc(C(F)(F)F)cc2)cc2[nH]ccc12` [Compound 165] was run?
Answer: Its EC50 is 0.2 to 1 µM.

Question: Which EC50 does the source give for `O=C(Nc1ccc(C(F)(F)F)cc1)Nc1cc(-c2cn[nH]c2)c2cc[nH]c2c1` [Compound 167] here?
Answer: The EC50 was 1 to 5 µM.

Question: Which EC50 does the source give for `O=C(Nc1cccc(S(=O)(=O)N2CCCC2)c1)Nc1ccc2cc[nH]c2c1` [Compound 168] here?
Answer: Its EC50 is 5 to 100 µM.

Question: How did the EC50 turn out when `O=C(Nc1ccc(C(F)(F)F)cc1)Nc1cc(-c2ccccc2)c2cc[nH]c2c1` [Compound 169] was run?
Answer: The EC50 was 1 to 5 µM.

Question: With `O=C(Nc1ccc2cc[nH]c2c1)Nc1ccc2cc[nH]c2c1` [Compound 170] as the molecule, how does the EC50 read?
Answer: The EC50 was 1 to 5 µM.

Question: For `CC(Cc1cccc(C(F)(F)F)c1)NC(=O)Nc1ccc2cc[nH]c2c1` (centres unmarked) [Compound 172], which EC50 is on record?
Answer: The EC50 was 1 to 5 µM.

Question: With `O=C(NCCc1c[nH]c2cc(OC(F)(F)F)ccc12)Nc1ccc2cc[nH]c2c1` [Compound 173] as the molecule, how does the EC50 read?
Answer: The EC50 was 0.2 to 1 µM.

Question: Which EC50 does the source give for `O=C(NCCN1CCC(Cc2ccccc2)CC1)Nc1ccc2cc[nH]c2c1` [Compound 174] here?
Answer: The EC50 was 5 to 100 µM.

Question: How did the EC50 turn out when `O=C(NCCOc1cccc(Br)c1)Nc1ccc2cc[nH]c2c1` [Compound 175] was run?
Answer: Its EC50 is 1 to 5 µM.

Question: `O=C(NCc1ccc(OCC(F)(F)F)nc1)Nc1ccc2cc[nH]c2c1` [Compound 176] was tested. Which EC50 did it give?
Answer: Its EC50 is 1 to 5 µM.

Question: `O=C(NCCCc1cncc(C(F)(F)F)c1)Nc1ccc2cc[nH]c2c1` [Compound 177] was tested. Which EC50 did it give?
Answer: Its EC50 is 1 to 5 µM.

Question: For `O=C(Nc1ccc2cc[nH]c2c1)NC1CCc2ccc(C(F)(F)F)cc21` (centres unmarked) [Compound 181], which EC50 is on record?
Answer: The EC50 was 1 to 5 µM.

same assay, conditions: 15 μM 2′3′cGAMP, 24h, numeric bounds

Question: For `CCCCc1ccc(Nc2c(Nc3ccc4cc[nH]c4c3)c(=O)c2=O)cc1` [Compound 113], which EC50 is on record?
Answer: Its EC50 is over 14.8 µM.

Question: How did the EC50 turn out when `O=C(NCC1(c2cccc(Cl)c2)CCOCC1)Nc1ccc2cc[nH]c2c1` [Compound 154] was run?
Answer: The EC50 was over 30 µM.

Question: Which EC50 does the source give for `Cc1cc(NC(=O)Nc2ccc(C(F)(F)F)cc2)cc2c1ccn2-c1cn[nH]c1` [Compound 156] here?
Answer: Its EC50 is over 30 µM.

Question: For `O=C(Nc1ccc(C(F)(F)F)cc1)Nc1cc(CO)c2cc[nH]c2c1` [Compound 157], which EC50 is on record?
Answer: The EC50 was over 30 µM.

Question: With `N#Cc1ccc(CNC(=O)Nc2ccc3cc[nH]c3c2)c(C(F)(F)F)c1` [Compound 159] as the molecule, how does the EC50 read?
Answer: The EC50 was over 30 µM.

Question: How did the EC50 turn out when `O=C(Nc1ccc2cc[nH]c2c1)NC1Cc2ccccc2C1` [Compound 161] was run?
Answer: The EC50 was over 30 µM.

Question: With `O=C(Nc1ccc(C(F)(F)F)cc1)Nc1cc(C(=O)O)c2cc[nH]c2c1` [Compound 166] as the molecule, how does the EC50 read?
Answer: Its EC50 is over 30 µM.

Question: `CC1(CNC(=O)Nc2ccc3cc[nH]c3c2)CCC(F)(F)CC1` [Compound 171] was tested. Which EC50 did it give?
Answer: The EC50 was over 30 µM.

Question: For `CC(C)(C)OC(=O)N1CC(CCNC(=O)Nc2ccc3cc[nH]c3c2)C1` [Compound 178], which EC50 is on record?
Answer: The EC50 was over 30 µM.

Question: Which EC50 does the source give for `CCS(=O)(=O)c1ccc(CNC(=O)Nc2ccc3cc[nH]c3c2)cn1` [Compound 179] here?
Answer: Its EC50 is over 30 µM.

Question: `CCn1cc(CNC(=O)Nc2ccc3cc[nH]c3c2)cn1` [Compound 180] was tested. Which EC50 did it give?
Answer: Its EC50 is over 30 µM.

From US20230092163A1, “COMPOUNDS AND COMPOSITIONS FOR TREATING CONDITIONS ASSOCIATED WITH STING ACTIVITY” (IFM Due, Inc., priority 2019, published 2023)
